Patent US8207230B2, “Functional role for cannabinoids in autonomic stability during sleep” (The Board of Trustees of the University of Illinois, priority 2001, dated 2012)

Legend:
Sprague-Dawley rats [1] = test: Serotonin-induced apnea during REM sleep; assay type: in vivo; settings: rat; for serotonin-induced increase in REM sleep apnea: pretreatment with 0.1 mg/kg intraperitoneal 15 minutes before 0.79 mg/kg serotonin; for frequency of apnea during REM sleep: intraperitoneal, serotonin 0.79 mg/kg alone vs saline
Procedure: (§1) Δ^9THC (dronabinol, Roxane Laboratories, Columbus, Ohio) was dissolved in DMSO: oleamide (ICN Biomedicals, Aurora, Ohio) was suspended in peanut oil with sonication for 20 minutes; and serotonin was dissolved in saline. The study was a fully nested, repeated measures crossover design, such that each animal received each of 12 intraperitoneal injections (1 ml/kg) exactly one time: vehicle alone (saline, DMSO, or peanut oil); Δ^9THC alone (0.1, 1.0, or 10.0 mg/kg); oleamide alone (0.1, 1.0, or 10.0 mg/kg); serotonin alone (0.79 mg/kg); or combination injection (0.1 mg/kg Δ^9THC followed, after 15 minutes, by 0.79 mg/kg serotonin or 0.1 mg/kg oleamide followed by 0.79 mg/kg serotonin). Each injection was made 15 minutes prior to polygraphic recording for 6 hours (10:00-16:00). Successive recordings for an individual animal were separated by at least three days and the treatments were given in random order.
(§2) Respiration was recorded by placing each animal, unrestrained, inside a single chamber plethysmograph (PLYUN1R/U; Buxco Electronics, Sharon, Conn.; dimension 6 in.×10 in.×6 in.) ventilated with a bias flow of fresh room air at a rate of 2 L/min. A cable plugged onto the animal's connector and passed through a sealed port was used to carry the bioelectrical activity from the head implant.
An accepted physiological animal model [rat; Monti, et al., Pharamcol. Biochem. Behav., 51:125-131; (1995)] of sleep apnea was used to assess the effects of a cannabinoid receptor agonist activity and/or agents having cannabimimetic activity. More specifically, sleep apneas, defined as cessation of respiratory effort for at least 2.5 seconds, were scored for each recording session and were associated with the stage in which they occurred: NREM or REM sleep. The duration requirement of 2.5 seconds represented at least 2 “missed” breaths, which is therefore analogous to a 10 second apnea duration requirement in humans, which also reflects 2-3 missed breaths. The events detected represent central apneas because decreased ventilation associated with obstructed or occluded airways would generate an increased plethysmographic signal, rather than a pause. An apnea index (AI), defined as apneas per hour in a stage was separately determined for NREM and REM sleep. The effects of sleep stage (NREM vs. REM) and injection (control vs. test compounds) were tested using ANOVA with repeated measures. Multiple comparisons were controlled using Fisher's protected least significant difference (PLSD). In addition, the timing and volume of each breath were scored by automatic analysis (Experimenters' Workbench; Datawave Technologies, Longmont, Colo.). […]

Sprague-Dawley rats [2] = test: Respiratory rate, minute ventilation and tidal volume by plethysmography; assay type: in vivo; settings: rat; for average respiratory rate (RR) / respiratory minute ventilation: intraperitoneal; for respiratory minute ventilation: compared with the effects on RR
Procedure: as §1, §2
The bias flow of room air (2 l/min) was more than one order of magnitude greater than the alveolar ventilation of the rat, ensuring that no rebreathing occurred. Thermal fluctuations associated with tidal respiration induced changes in plethysmograph pressure proportional to tidal volume. Plethysmograph pressure was monitored using a Validyne DP45-14 differential pressure transducer (±2 cm H20). Prior to each experimental study, the plethysmograph was calibrated for tidal volume using the method described by Epstein et al. (J. Appl. Physiol., 49, 1107 (1980)). An adaptive threshold algorithm (Datawave Systems, Longmont, Colo.) was used to measure the duration and tidal amplitude of each breath in each recording. From these values, instantaneous respiratory rate (RR) and minute ventilation (MV) were computed on a breath by breath basis. Respiratory variability was assessed by calculating the standard deviations of RR and MV for each 10 second recording epoch. These standard deviations were then averaged separately for each sleep/wake state.
(§3) An accepted physiological animal model [rat; Monti, et al., Pharamcol. Biochem. Behav., 51:125-131; (1995)] of sleep apnea was used to assess the effects of a cannabinoid receptor agonist activity and/or agents having cannabimimetic activity. More specifically, sleep apneas, defined as cessation of respiratory effort for at least 2.5 seconds, were scored for each recording session and were associated with the stage in which they occurred: NREM or REM sleep. The duration requirement of 2.5 seconds represented at least 2 “missed” breaths, which is therefore analogous to a 10 second apnea duration requirement in humans, which also reflects 2-3 missed breaths. The events detected represent central apneas because decreased ventilation associated with obstructed or occluded airways would generate an increased plethysmographic signal, rather than a pause. An apnea index (AI), defined as apneas per hour in a stage was separately determined for NREM and REM sleep. The effects of sleep stage (NREM vs. REM) and injection (control vs. test compounds) were tested using ANOVA with repeated measures. Multiple comparisons were controlled using Fisher's protected least significant difference (PLSD). In addition, the timing and volume of each breath were scored by automatic analysis (Experimenters' Workbench; Datawave Technologies, Longmont, Colo.). For each animal the mean respiratory rate (RR) and minute ventilation (MV) was computed for W throughout the 6 hour control recording and used as a baseline to normalize respiration during sleep and during test compound administration in that animal. […]

CB2 receptors = CB2 receptors (Homo sapiens, UniProt P34972); settings: cited from earlier work
CB1 receptors = CB1 receptors (Homo sapiens, UniProt P21554); settings: cited from earlier work
Sprague-Dawley rats [3] = test: Spontaneous sleep apnea (apnea index) by plethysmography in freely moving rats; assay type: in vivo; settings: rat; for breaths with long duration in typical 6-hour recordings (FIG. 1A): vs vehicle recording; for time dependence of apnea suppression during the 6-hour recording period: NREM and REM sleep; for degree of apnea suppression, Δ^9THC compared with oleamide: highest dose (10.0 mg/kg)
Procedure: These recoding and data analysis methods have been described in detail elsewhere [Carley and Radulovacki (Chest., 115: 1397 (1999)].
Adult, male Sprague-Dawley rats (Sasco-King, Wilmington, Mass.; 11 per test group; 300 g) were maintained on a 12-hour light (08:00-20:00 hour)/12-hour dark (20:00-08:00 hour) cycle for one week, housed in individual cages and given ad libitum access to food and water. Following the one week of acclimatization, animals were subjected to the following surgical procedures.
as §1, §2
Sleep and waking states were assessed using the biparietal EEG and nuchal EMG signals on 10-second epochs as described by Bennington et al. [Sleep 17:28-36 (1994)]. This software discriminated wakefulness (W) as a high frequency low amplitude EEG with a concomitant high EMG tone, NREM sleep by increased spindle and […] activity together with decreased EMG tone, and REM sleep by a low ratio of a delta to theta activity and an absence of EMG tone. Sleep efficiency was measured as the percentage of total recorded epochs staged as NREM or REM sleep.
as §3

Sprague-Dawley rats [4] = test: Sleep/wake architecture by EEG/EMG recording; assay type: in vivo; settings: rat, intraperitoneal; for sleep/wake architecture: 6 hour recording
Procedure: Acclimatized animals were anesthetized for the implantation of cortical electrodes for electroencephalogram (EEG) recording and neck muscle electrodes for electromyogram (EMG) recording using a mixture of ketamine (Vedco, Inc., St. Joseph, Mo.; 80 mg/ml) and xylazine (Vedco, Inc., St. Joseph, Mo.; 5 mg/ml; 4:1, volume/volume) at a volume of 1 ml/kg body weight. The surface of the skull was exposed surgically and cleaned with a 20% solution of hydrogen peroxide followed by, a solution of 95% isopropyl alcohol. Next, a dental preparation of sodium fluoride: (Flura-GEL®, Saslow Dental, Mt. Prospect, Ill.) was applied to harden the skull above the parietal cortex and allowed to remain in place for 5 minutes. The fluoride mixture was then removed from the skull above the parietal cortex. The EEG electrodes consisting of four stainless steel machine screws, having leads attached thereto, were threaded into the skull to rest on the dura over the parietal cortex. A thin layer of Justi® resin cement (Saslow Dental, Mt. Prospect, Ill.) was applied to cover the screw heads (of screws implanted in the skull) and surrounding skull to further promote the adhesion of the implant. EMG electrodes consisting of two ball-shaped wires were inserted into the bilateral neck musculature. All leads (i.e., EEG and EMG leads) were soldered to a miniature connector (39F1401, Newark Electronics, Chicago, Ill.). Lastly, the entire assembly was fixed to the skull with dental cement.
as §1
Sleep and waking states were assessed using the biparietal EEG and nuchal EMG signals on 10-second epochs as described by Bennington et al. [Sleep 17:28-36 (1994)]. […] Sleep efficiency was measured as the percentage of total recorded epochs staged as NREM or REM sleep.

[5] = 0.1-10.0 mg/kg, sleep/wake states
[6] = intraperitoneal, 0.1 mg/kg, administered alone
[7] = intraperitoneal, 1.0 mg/kg, vs vehicle
[8] = intraperitoneal, 10.0 mg/kg, vs vehicle

Sequence of CB1 receptors (P21554 whole entry): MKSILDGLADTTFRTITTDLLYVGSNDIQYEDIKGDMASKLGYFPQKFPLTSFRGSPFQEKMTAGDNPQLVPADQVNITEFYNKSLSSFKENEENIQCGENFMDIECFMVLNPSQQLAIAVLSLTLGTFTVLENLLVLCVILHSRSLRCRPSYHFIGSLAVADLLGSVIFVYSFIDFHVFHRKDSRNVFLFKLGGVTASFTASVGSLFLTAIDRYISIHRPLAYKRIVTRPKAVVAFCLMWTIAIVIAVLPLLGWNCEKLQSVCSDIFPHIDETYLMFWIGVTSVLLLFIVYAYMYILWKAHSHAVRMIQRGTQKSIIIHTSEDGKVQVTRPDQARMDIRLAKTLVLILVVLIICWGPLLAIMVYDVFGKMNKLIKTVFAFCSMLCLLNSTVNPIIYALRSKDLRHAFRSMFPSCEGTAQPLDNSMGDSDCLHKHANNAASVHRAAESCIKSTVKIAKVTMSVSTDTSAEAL
Sequence of CB2 receptors (P34972 whole entry): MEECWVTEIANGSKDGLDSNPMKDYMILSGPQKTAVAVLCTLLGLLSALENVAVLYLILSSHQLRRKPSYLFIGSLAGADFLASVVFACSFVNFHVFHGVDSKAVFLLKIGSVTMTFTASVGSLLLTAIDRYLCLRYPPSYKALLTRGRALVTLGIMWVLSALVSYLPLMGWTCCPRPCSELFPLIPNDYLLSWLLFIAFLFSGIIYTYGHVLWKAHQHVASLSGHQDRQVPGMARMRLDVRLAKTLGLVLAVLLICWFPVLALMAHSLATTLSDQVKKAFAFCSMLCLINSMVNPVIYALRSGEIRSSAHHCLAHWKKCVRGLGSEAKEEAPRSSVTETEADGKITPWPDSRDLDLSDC

Structure (SMILES)	serotonin-induced increase in REM sleep apnea (Sprague-Dawley rats [1])	average respiratory rate (RR) (Sprague-Dawley rats [2]; 10.0 mg/kg, 6-hour recording)	average respiratory rate (RR) (Sprague-Dawley rats [2]; [5])	respiratory minute ventilation (Sprague-Dawley rats [2]; 0.1-10.0 mg/kg)	breaths with long duration in typical 6-hour recordings (FIG. 1A) (Sprague-Dawley rats [3]; 10.0 mg/kg)	apnea expression during REM sleep (Sprague-Dawley rats [3]; [6])	frequency of apneas during NREM sleep (Sprague-Dawley rats [3]; [7])	apnea expression during REM sleep (Sprague-Dawley rats [3]; [8])	frequency of apneas during NREM sleep (Sprague-Dawley rats [3]; [8])	time dependence of apnea suppression during the 6-hour recording period (Sprague-Dawley rats [3]; intraperitoneal)	degree of apnea suppression, Δ^9THC compared with oleamide (Sprague-Dawley rats [3]; intraperitoneal)	further results
CCCCCCCC/C=C\CCCCCCCC(N)=O [oleamide]	completely blocked	tended to increase	dose dependent elevation of RR	Equivalent effects	clear reduction in breaths with durations exceeding 1.5 seconds	neither Δ^9THC nor oleamide had any effect	suppressed apnea expression	suppressed apnea expression	suppressed apnea expression	persisted throughout the 6 hour recording interval	equivalent	respiratory rate (RR), statistical significance of elevation (Sprague-Dawley rats [2]; 10.0 mg/kg vs. vehicle, p=0.03): achieved statistical significance only during wakefulness; binding affinity to CB2 receptors (CB2 receptors): does not appear to bind with high affinity; binding affinity to CB1 receptors (CB1 receptors): does not appear to bind with high affinity; frequency of apneas during NREM sleep (Sprague-Dawley rats [3]; intraperitoneal, 0.1 mg/kg, vs vehicle): suppressed apnea expression; apnea expression during REM sleep (Sprague-Dawley rats [3]; [7]): suppressed apnea expression; sleep/wake architecture (Sprague-Dawley rats [4]; 0.1 mg/kg): increased REM sleep with decreased wakefulness; sleep/wake architecture (Sprague-Dawley rats [4]; 1.0 mg/kg): increased REM sleep with decreased wakefulness; sleep/wake architecture (Sprague-Dawley rats [4]; 10.0 mg/kg): increased NREM sleep with decreased REM sleep
NCCc1c[nH]c2ccc(O)cc12 [serotonin]												frequency of apnea during REM sleep (Sprague-Dawley rats [1]): significant increase in the frequency of apnea; frequency of apnea during REM sleep (Sprague-Dawley rats [1]; listed as Serotonin): significant increase in REM sleep-apnea
CCCCCc1cc(O)c2c(c1)OC(C)(C)[C@@H]1CCC(C)=C[C@@H]21 [Δ^9THC, 9-tetrahydrocannabinol]	completely blocked	significantly reduced in all sleep/wake states	dose dependent reduction in RR	Equivalent effects	clear reduction in breaths with durations exceeding 1.5 seconds	neither Δ^9THC nor oleamide had any effect	reduced the frequency of apneas	significant decrease	reduced the frequency of apneas	not time-dependent	equivalent	spontaneous apnea during all sleep stages (Sprague-Dawley rats [3]; intraperitoneal, 0.1-10.0 mg/kg, 6-hour recording, vs vehicle): strongly suppressed spontaneous apnea; change in REM sleep expression (Sprague-Dawley rats [4]; highest dose tested (10.0 mg/kg), p=0.0002): −66%
